Values quoted from earlier work, collected in patent publication US11786460B2, “Pharmaceutical dry powder composition for inhalation comprising a thyroid hormone” (priority 2018, dated 2023).

How the values were obtained:
[1] = mainly in the jejunum and ileum
Calu-3 cells = conditions: in vitro

fraction absorbed after oral administration [1]: 60-80%
Structure (SMILES): N[C@@H](Cc1cc(I)c(Oc2cc(I)c(O)c(I)c2)c(I)c1)C(=O)O [levothyroxine]
absorption from the respiratory mucosa (permeability) (Calu-3 cells): can be absorbed effectively from the respiratory mucosa
